# Test results published in US20250082612A1, “SREBP-1 INHIBITOR AND PHARMACEUTICAL COMPOSITION FOR TREATING […]” (Jichi Medical University, priority 2021, published 2025).
# Tested on: H4IIEC3 cells
# Assay: Triglyceride concentration in culture solution of H4IIEC3 hepatocytes
# Type: cell-based, rat
# Settings: 2 μM in culture medium; 24 hours; relative to DMSO group
# Method: Specifically, first, H4IIEC3 cells (1×10^5 cells/well) seeded in advance in a 48-well plate, which are a cell line of rat hepatocytes, were cultured for 1 day. Next, culture medium exchange was carried out so that a high glucose DMEM (serum-free) containing each compound (concentration in culture medium: 2 μM) or DMSO as a control was 200 μL/well, and then the cells were incubated for 24 hours. Next, the triglyceride concentration in the culture solution was measured using a Triglyceride E-Test WAKO (FUJIFILM Corporation). In FIG. 7A to FIG. 7F, the triglyceride concentration in each compound addition group was indicated as a relative percentage in a case where the triglyceride concentration in the DMSO addition group was set to 100%.
row,SMILES,triglycerides in culture solution of cultured hepatocytes (FIG. 7A-7F)
1,CCCOc1ccccc1OC(=O)CN1C(=O)COc2ccccc21 [(5)],reduce triglycerides
2,"CSc1nn(-c2ccc([N+](=O)[O-])cc2)c(N)c1C(N)=O [(6), 5-amino-3-methylsulfanyl-1-(4-nitrophenyl)pyrazole-4-carboxamide]",reduce triglycerides
3,C=CCNc1nc(-c2ccc(N3CCCC3=O)cc2)cs1 [(11)],reduce triglycerides
4,COc1ccc2c(c1)[nH]c1c(C)nccc12 [(16)],reduce triglycerides
5,CCc1c2c(nc3ccc(O)cc13)-c1cc3c(c(=O)n1C2)COC(=O)[C@]3(O)CC [(22a)],reduce triglycerides

# Molecular target: T1, human SREBP-1c (Homo sapiens, UniProt P36956)
# T1 construct: expressed in transfected cells
# Assay: Gal4-SREBP-1c luciferase reporter assay in HepG2 stable expression strain
# Type: cell-based
# Settings: EPA 100 or 300 μM, OA 300 μM, Cho 100 μM, 25HCho 30 μM in culture medium; 24 hours; vs DMSO
# Text: A pcDNA3.1 (+)-Hyg vector (manufactured by Thermo Fisher Scientific, Inc. under the brand of Invitrogen) was inserted with DNA fragments of a firefly luciferase reporter cloned from a pGL3-Basic vector (manufactured by Promega Corporation), a pSV40-Renilla luciferase reporter cloned from a pRL-SV40 vector (manufactured by Promega Corporation), and a human SREBP-1c cloned from a pTK-HSV-hSREBP-1c, whereby a vector having a structure shown in FIG. 1 was constructed. The base sequence of the vector is set forth in SEQ ID NO: 2. In FIG. 1, Gal4-BP1 is a human SREBP-1c that is obtained by fusing sequences of the Gal4-DNA binding domain and the minimal VP16-AD to the N-terminal side. 17 m8 is a DNA sequence to which the Gal4-DNA binding domain binds. CTCF is a DNA sequence that acts as an insulator, which blocks the action of transcription factors.
# HepG2 cells, which are a cell line derived from human liver cancer, were cultured in advance to a confluency of 10% confluent in Dulbecco's Modified Eagle's Medium (DMEM) (containing 25 mM glucose, 100 units/mL penicillin, […] streptomycin sulfate, and 10 v/v % fetal bovine serum (FBS)) and then transfected with the vector obtained in (1) described above, by using a Lipofectamine 3000 transfection reagent (manufactured by Thermo Fisher Scientific, Inc. under the brand of Invitrogen), 5 whereby the vector was inserted into the genome. […] Next, a Reporter lysis buffer (Promega Corporation) was added to lyse the cells, and luciferase activity was measured with a luminometer.
# Next, each candidate compound (concentration in culture medium: 2 or 5 μM) was added to the cell line (2×10^4 cells/well) seeded in a plurality of 384-well plates, which had been constructed in (2) described above, so that one kind of each compound was added to one well, and incubation was carried out for 24 hours. […] Next, Steady-Glo (a mixture of luciferin and a Lysis buffer) was added thereto, and then luciferase activity was measured with a luminometer. […]
# T1 sequence (P36956 with tags, fused parts or gaps isoform P36956-4 limits assumed): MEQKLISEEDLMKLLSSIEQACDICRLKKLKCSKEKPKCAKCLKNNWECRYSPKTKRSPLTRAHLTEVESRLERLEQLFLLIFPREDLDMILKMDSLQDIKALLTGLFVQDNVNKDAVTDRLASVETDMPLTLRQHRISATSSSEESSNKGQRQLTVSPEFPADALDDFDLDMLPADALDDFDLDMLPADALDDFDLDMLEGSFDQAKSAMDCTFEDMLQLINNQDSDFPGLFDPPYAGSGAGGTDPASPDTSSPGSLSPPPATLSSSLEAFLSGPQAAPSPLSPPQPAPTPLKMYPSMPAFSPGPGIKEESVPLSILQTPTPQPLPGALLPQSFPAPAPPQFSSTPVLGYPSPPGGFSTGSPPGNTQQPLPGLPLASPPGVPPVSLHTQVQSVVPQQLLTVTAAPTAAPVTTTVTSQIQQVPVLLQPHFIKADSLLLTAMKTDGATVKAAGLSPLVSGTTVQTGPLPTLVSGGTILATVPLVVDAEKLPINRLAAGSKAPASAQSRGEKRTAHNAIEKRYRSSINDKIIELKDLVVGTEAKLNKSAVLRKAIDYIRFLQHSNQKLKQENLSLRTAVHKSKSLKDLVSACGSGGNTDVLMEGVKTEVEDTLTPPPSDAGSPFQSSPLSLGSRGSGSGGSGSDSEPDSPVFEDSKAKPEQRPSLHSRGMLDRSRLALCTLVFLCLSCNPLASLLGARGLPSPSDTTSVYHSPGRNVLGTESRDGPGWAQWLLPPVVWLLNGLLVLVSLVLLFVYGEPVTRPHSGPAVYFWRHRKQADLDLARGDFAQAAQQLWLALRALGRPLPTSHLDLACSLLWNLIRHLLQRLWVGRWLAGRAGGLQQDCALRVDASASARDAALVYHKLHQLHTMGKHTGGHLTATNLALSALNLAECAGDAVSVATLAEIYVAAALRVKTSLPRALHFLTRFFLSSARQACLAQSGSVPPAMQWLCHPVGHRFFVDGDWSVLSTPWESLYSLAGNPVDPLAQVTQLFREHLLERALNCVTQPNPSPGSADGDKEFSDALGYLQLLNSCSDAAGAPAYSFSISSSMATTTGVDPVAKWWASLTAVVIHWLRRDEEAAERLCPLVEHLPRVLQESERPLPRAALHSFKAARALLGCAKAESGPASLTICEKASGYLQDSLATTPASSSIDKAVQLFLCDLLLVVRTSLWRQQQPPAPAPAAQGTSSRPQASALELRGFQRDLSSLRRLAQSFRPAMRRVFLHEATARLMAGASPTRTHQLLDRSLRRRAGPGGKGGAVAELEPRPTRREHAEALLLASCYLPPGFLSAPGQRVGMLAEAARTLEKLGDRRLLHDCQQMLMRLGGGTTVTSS
row,SMILES,"luciferase activity (SREBP-1 reporter, FIG. 2)"
1,"CC(C)CCC[C@@H](C)[C@H]1CC[C@H]2[C@@H]3CC=C4C[C@@H](O)CC[C@]4(C)[C@H]3CC[C@]12C [Cho, cholesterol]",luciferase activity was reduced
2,"C[C@H](CCCC(C)(C)O)[C@H]1CC[C@H]2[C@@H]3CC=C4C[C@@H](O)CC[C@]4(C)[C@H]3CC[C@]12C [Compound 25HCho, 25-hydroxycholesterol]",luciferase activity was reduced
3,"CCCCCCCC/C=C\CCCCCCCC(=O)O [OA, oleic acid]",luciferase luminescence was observed

# Molecular target: T2, human SREBP-2 (Homo sapiens, UniProt Q12772)
# T2 construct: expressed in transfected cells
# Assay: Gal4-SREBP-2 luciferase reporter assay in HepG2 stable expression strain
# Type: cell-based
# Settings: EPA 100 or 300 μM, 25HCho 30 μM in culture medium; 24 hours; vs DMSO
# Text: In order to exclude compounds such as cholesterol and 25-hydroxycholesterol, which have an inhibitory action on both SREBP-1 and SREBP-2, first, a vector having the structure shown in FIG. 3 was constructed using the same method as in “1.” described above, except that a DNA fragment of human SREBP-2 cloned from pTK-HSVhSREBP-2 was used instead of the DNA fragment of human SREBP-1c. The base sequence of the vector is set forth in SEQ ID NO: 3. In FIG. 3, Gal4-BP2 is a human SREBP-2 that is obtained by fusing sequences of the Gal4-DNA binding domain and the minimal VP16-AD to the N-terminal side.
# a stable expression strain of HepG2, which stably expressed firefly luciferase, was established using the same method as in “1. (2)” described above, except that the vector obtained in “2. (1)” described above was used. […] Next, a Reporter lysis buffer (Promega Corporation) was added to lyse the cells, and luciferase activity was measured with a luminometer. […]
# Among the 39 kinds of compounds, 23 kinds of compounds were selected by searching the PAINS database (https://www.rdkit.org/docs/source/rdkit. Chem.rdfiltercatalog.html) and excluding, from targets of interest, compounds for which non-specific action had been reported. […] It is noted that the SREBP-1 inhibition rate and the SREBP-2 inhibition rate in the reporter assay were calculated using the following method. […]
# T2 sequence (Q12772 with tags, fused parts or gaps limits assumed): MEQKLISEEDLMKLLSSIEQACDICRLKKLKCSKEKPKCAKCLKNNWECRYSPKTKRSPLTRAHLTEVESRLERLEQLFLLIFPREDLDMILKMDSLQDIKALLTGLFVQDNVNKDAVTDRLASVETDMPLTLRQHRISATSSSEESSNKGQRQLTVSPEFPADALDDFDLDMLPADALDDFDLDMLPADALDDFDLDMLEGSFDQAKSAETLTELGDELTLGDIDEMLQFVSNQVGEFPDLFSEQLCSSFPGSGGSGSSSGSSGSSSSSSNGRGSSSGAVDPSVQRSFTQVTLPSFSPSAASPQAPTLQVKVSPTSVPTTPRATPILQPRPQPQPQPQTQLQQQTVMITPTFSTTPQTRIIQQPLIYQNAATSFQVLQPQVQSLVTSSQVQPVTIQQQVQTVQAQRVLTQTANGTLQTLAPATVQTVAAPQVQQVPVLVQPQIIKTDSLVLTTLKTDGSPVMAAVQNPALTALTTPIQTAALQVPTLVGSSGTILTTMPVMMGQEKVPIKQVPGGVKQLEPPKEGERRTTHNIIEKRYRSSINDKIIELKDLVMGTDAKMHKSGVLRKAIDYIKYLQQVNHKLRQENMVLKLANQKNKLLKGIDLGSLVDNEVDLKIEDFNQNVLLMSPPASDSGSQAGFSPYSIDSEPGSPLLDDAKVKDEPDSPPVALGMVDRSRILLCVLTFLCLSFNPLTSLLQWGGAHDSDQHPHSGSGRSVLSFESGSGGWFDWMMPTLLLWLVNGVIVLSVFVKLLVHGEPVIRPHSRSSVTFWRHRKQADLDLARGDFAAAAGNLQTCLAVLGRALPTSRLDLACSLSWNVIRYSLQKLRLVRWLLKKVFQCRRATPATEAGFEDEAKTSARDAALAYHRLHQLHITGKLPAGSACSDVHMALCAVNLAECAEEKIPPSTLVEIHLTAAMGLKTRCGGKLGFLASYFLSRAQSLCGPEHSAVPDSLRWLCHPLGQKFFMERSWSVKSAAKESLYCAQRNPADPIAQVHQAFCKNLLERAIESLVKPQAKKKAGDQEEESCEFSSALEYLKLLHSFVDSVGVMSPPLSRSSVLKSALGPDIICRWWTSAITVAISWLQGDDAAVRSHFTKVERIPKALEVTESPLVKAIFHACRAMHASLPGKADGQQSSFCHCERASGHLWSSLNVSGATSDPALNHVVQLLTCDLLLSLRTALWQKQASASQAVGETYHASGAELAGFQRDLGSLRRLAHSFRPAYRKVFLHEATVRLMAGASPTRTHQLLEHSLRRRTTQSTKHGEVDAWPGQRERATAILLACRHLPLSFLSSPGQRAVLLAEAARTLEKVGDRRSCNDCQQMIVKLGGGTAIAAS
row,SMILES,"luciferase activity (SREBP-2 reporter, FIG. 4)"
1,"C[C@H](CCCC(C)(C)O)[C@H]1CC[C@H]2[C@@H]3CC=C4C[C@@H](O)CC[C@]4(C)[C@H]3CC[C@]12C [Compound 25HCho, 25-hydroxycholesterol]",luciferase activity was reduced
